27 compounds from patent publication US20230183179A1, “NOVEL CELL METABOLISM MODULATING COMPOUNDS AND USES THEREOF” (CRESCENTA BIOSCIENCES, priority 2020, published 2023) can be followed below.

Assay [1] addresses T1, His6 tagged human recombinant FABP4 (Homo sapiens, UniProt P15090).
T1 construct: purchased Cayman Chemicals 10009549
Description: FABP4 TR-FRET assay: displacement of fluorescent fatty acid BODIPY FL C12. The note with it: inhibition of BODIPY FL C12 binding to His6-FABP4; 1.2 μL of 1.085 mM compound in DMSO per well; triplicates, mean percent inhibition. The source says:
Activity of compounds with FABP4 was profiled using a Terbium (Tb) based time resolved fluorescence energy transfer (TR-FRET) assay. The assay measures the compound mediated displacement of the fluorescent fatty acid BODIPY FL C12 (Thermo Fisher; catalog number D3822) from His6 tagged human recombinant FABP4 (His6-FABP4; Cayman Chemicals, catalog number 10009549) via recording the energy transfer from TB donor molecule on anti-His6-tag antibody to acceptor BODIPY moiety. Briefly, compounds and BODIPY FL C12 were prepared at a concentration of 1.085 mM and 4.2 μM, respectively, in DMSO. 1.2 μL of each compound or DMSO (vehicle control) and 1.2 μL of BODIPY FL C12 were added into the wells of a 384-well black polypropylene plate. His6-FABP4 and Tb anti-His6 antibody were prepared in the assay buffer (25 mM Tris/HCl, pH 7.4, 0.4 mg/ml γ-globulins, 0.010% NP-40, 1 mM DTT) at a concentration of 83 nM and 49.6 nM, respectively. The protein and antibody solutions were then mixed at a ratio of 34:7 (v/v) and incubated on ice for 30 minutes. The assay was initiated by adding 41 μL of the resulting protein/antibody solution into the wells containing the compounds and BODIPY FL C12. The plate was centrifuged and incubated at room temperature for 10 min. The TR-FRET signals were recorded using an EnVision Multilabel plate reader (PerkinElmer; TB excitation 320 nm, BODIPY FL C12 emission 520 nm; TB emission 615 nm). Relative fluorescence ratio (520 nm*10,000/615 nm) were used to calculate the compound mediated inhibition of BODIPY C12 FL fatty acid binding to FABP4. The compounds were tested in triplicates and the results were represented as mean percent inhibition (compound*100/DMSO)±standard deviation (SD). Glucose consumption and FABP4 inhibition is shown below in Table 3 below. The compounds showing no inhibition of activity in the TR-FRET assay are marked as N.A. N.D. stands for “not determined”.

Assay [2] concerns differentiated 3T3-L1 mouse adipocyte cells. Nature of the assay: Adipocyte glucose consumption in differentiated 3T3-L1 cells (colorimetric glucose assay of the medium). The class given is cell-based. The note with it: 3T3-L1, 24 h, compound 10 μM, loss of glucose from culture medium, mean fold change (compound/DMSO). The method, then:
Activity of compounds on adipocyte glucose consumption was tested in differentiated 3T3-L1 mouse adipocyte cells. 3T3-L1 preadipocytes (ATCC) were routinely cultured in a growth medium composed of DMEM high-glucose (Sigma), 10% FBS (Gibco), 10 U/ml penicillin and 10 μg/ml streptomycin (P/S; Gibco). To induce adipogenic differentiation, a confluent layer of 3T3-L1 cells were incubated with the growth medium containing 2 μM rosiglitazone, 1 μM dexamethasone, 500 μM IBMX, and 1 μg/ml insulin (Sigma). Forty-eight (48) hours later (on day 2) and on days 4 and 6, medium of the cells was replaced with fresh medium containing 1 μg/ml insulin. On days 8 and 10, the medium was refreshed with regular growth medium and addition of insulin was omitted. On day 11, medium of the cells were 10 replaced with fresh medium containing either the indicated compounds (10 μM) or the vehicle in which the compounds were dissolved (DMSO). The final concentration of DMSO was 0.1% (v/v). Growth medium containing 0.1% DMSO was incubated in culture wells containing no cells and used as control. 24 hours later, medium was harvested and subjected to centrifugation at 10,000 g for 5 min. Glucose concentration in the supernatants was determined using a 15 colorimetric assay (Glucose Assay Kit I, Eton Biosciences). Glucose consumption in compound and vehicle treated cells was measured as loss of glucose from the culture medium and represented as mean fold change (compound/DMSO)±standard deviation (SD).

T1 sequence (P15090 whole entry): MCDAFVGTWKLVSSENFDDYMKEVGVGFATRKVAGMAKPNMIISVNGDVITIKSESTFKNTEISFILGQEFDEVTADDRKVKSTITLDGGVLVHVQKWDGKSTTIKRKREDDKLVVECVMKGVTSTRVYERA

Consider `CCCCCCc1ccc2nc(N(C)CC(C)C(=O)O)cc(-c3cccnc3)c2c1` (stereo not drawn) [3-{[6-hexyl-4-(pyridin-3-yl)quinolin-2-yl](methyl)amino}-2-methylpropanoic acid], for which the inhibition at 1085 µM (stock) in assay [1] turned out to be 54.7%. For the same compound, in assay [2], the fold induction at 10 µM came out at 1.16.

Consider `CCCCc1ccc2nc(N3CCOC(C(=O)O)C3)cc(-c3ccccc3)c2c1` (stereo not drawn) [4-(6-butyl-4-phenylquinolin-2-yl)morpholine-2-carboxylic acid], for which the inhibition at 1085 µM (stock) in assay [1] was 21.1%. In addition, the fold induction at 10 µM in assay [2] came out at 1.07.

Regarding `CCCCc1ccc2nc(N(C)CC(=O)O)cc(-c3cccc(C#N)c3)c2c1` [2-{[6-butyl-4-(3-cyanophenyl)quinolin-2-yl](methyl)amino}acetic acid], the inhibition at 1085 µM (stock) in assay [1] came out at 33.2%. Moreover, the fold induction at 10 µM in assay [2] is 1.33.

On to `CN(CC(=O)O)c1cc(-c2ccccc2)c2cc(Br)ccc2n1` [2-[(6-bromo-4-phenylquinolin-2-yl)(methyl)amino]acetic acid], for which, in assay [1], the inhibition at 1085 µM (stock) was determined as 109%. Further, the fold induction at 10 µM in assay [2] was 1.26.

For the compound `CCCCCc1ccc2nc(OCC(=O)O)cc(-c3cccc(C#N)c3)c2c1` [2-{[4-(3-cyanophenyl)-6-pentylquinolin-2-yl]oxy}acetic acid], the inhibition at 1085 µM (stock) in assay [1] was determined as 10.6%. Moreover, in assay [2], the fold induction at 10 µM was 1.01.

`CCCc1ccc2nc(OCC(=O)O)cc(-c3ccccc3)c2c1` [2-[(4-phenyl-6-propylquinolin-2-yl)oxy]acetic acid]: the inhibition at 1085 µM (stock) in assay [1] turned out to be 33.8%. In addition, the fold induction at 10 µM in assay [2] stood at 0.99.

`CCCCCCc1ccc2nc(N(C)Cc3nn[nH]n3)cc(-c3ccccc3)c2c1` [6-hexyl-N-methyl-4-phenyl-N-[(2H-1,2,3,4-tetrazol-5-yl)methyl]quinolin-2-amine]: the inhibition at 1085 µM (stock) in assay [1] worked out at 37.8%. Besides, the fold induction at 10 µM in assay [2] was 1.52.

Consider `CCCCCCCCc1ccc2nc(N(C)CC(=O)O)cc(Oc3ccncc3)c2c1` [2-{methyl [6-octyl-4-(pyridin-4-yloxy)quinolin-2-yl]amino}acetic acid], for which the inhibition at 1085 µM (stock) in assay [1] stood at 19.4%. In assay [2], the fold induction at 10 µM came out at 1.14.

As to `CCCCCCc1ccc2nc(N(C)CC(C)C(=O)O)cc(-c3ccc(F)cc3)c2c1` (stereo not drawn) [3-{[4-(4-fluorophenyl)-6-hexylquinolin-2-yl](methyl)amino}-2-methylpropanoic acid], the inhibition at 1085 µM (stock) in assay [1] stood at 92.3%. The fold induction at 10 µM in assay [2] was found to be 1.31.

With `CCCCC(=O)Nc1ccc2nc(N(C)CC(=O)O)cc(-c3ccccc3)c2c1` [2-[methyl(6-pentanamido-4-phenylquinolin-2-yl)amino]acetic acid], in assay [1], the inhibition at 1085 µM (stock) turned out to be 28.7%. Also, the fold induction at 10 µM in assay [2] was 0.98.

In the case of `CCCCc1ccc2nc(OCC(=O)O)cc(-c3cccc(C(N)=O)c3)c2c1` [2-{[6-butyl-4-(3-carbamoylphenyl)quinolin-2-yl]oxy}acetic acid], the inhibition at 1085 µM (stock) in assay [1] is 54.5%. Besides, the fold induction at 10 µM in assay [2] was 1.15.

For the compound `CCCCCCc1ccc2nc(N(C)C(C)CC(=O)O)cc(-c3cccc(C#N)c3)c2c1` (stereo not drawn) [3-{[4-(3-cyanophenyl)-6-hexylquinolin-2-yl](methyl)amino}butanoic acid], the inhibition at 1085 µM (stock) in assay [1] came out at 77.9%. Also, in assay [2], the fold induction at 10 µM came out at 1.03.

For the compound `CCCCCCCCc1ccc2nc(N(C)CC(=O)O)cc(Oc3cccnc3)c2c1` [2-{methyl [6-octyl-4-(pyridin-3-yloxy)quinolin-2-yl]amino}acetic acid], the inhibition at 1085 µM (stock) in assay [1] was determined as 83.6%. The fold induction at 10 µM in assay [2] was determined as 1.47.

On to `CCc1ccc2nc(OCC(=O)O)cc(-c3cccc(C(N)=O)c3)c2c1` [2-{[4-(3-carbamoylphenyl)-6-ethylquinolin-2-yl]oxy}acetic acid], for which the inhibition at 1085 µM (stock) in assay [1] came to 30.4%. In assay [2], the fold induction at 10 µM stood at 0.93.

Regarding `COc1cccc(CCc2ccc3nc(N(C)CC(=O)O)cc(-c4ccccc4)c3c2)c1` [2-({6-[2-(3-methoxyphenyl)ethyl]-4-phenylquinolin-2-yl}(methyl)amino)acetic acid], in assay [1], the inhibition at 1085 µM (stock) was 93.2%. Further, in assay [2], the fold induction at 10 µM was found to be 1.31.

`CCCCCCc1ccc2nc(N(C)CC(=O)O)cc(N3CCOCC3)c2c1` [2-{[6-hexyl-4-(morpholin-4-yl)quinolin-2-yl](methyl)amino}acetic acid]: in assay [1], the inhibition at 1085 µM (stock) came to 26.5%. Also, the fold induction at 10 µM in assay [2] came out at 1.31.

Consider `CCCc1ccc2nc(OCC(=O)O)cc(-c3cccc(C(N)=O)c3)c2c1` [2-{[4-(3-carbamoylphenyl)-6-propylquinolin-2-yl]oxy}acetic acid], for which, in assay [1], the inhibition at 1085 µM (stock) stood at 42.9%. The fold induction at 10 µM in assay [2] was found to be 1.

Consider `CCCCc1ccc2nc(N(C)CC(C)C(=O)O)cc(-c3cccnc3)c2c1` (stereo not drawn) [3-{[6-butyl-4-(pyridin-3-yl)quinolin-2-yl](methyl)amino}-2-methylpropanoic acid], for which the inhibition at 1085 µM (stock) in assay [1] is 46.4%. Further, the fold induction at 10 µM in assay [2] was determined as 1.13.

Take `CCc1ccc2nc(OCC(=O)O)cc(-c3ccccc3)c2c1` [2-[(6-ethyl-4-phenylquinolin-2-yl)oxy]acetic acid]: the inhibition at 1085 µM (stock) in assay [1] amounted to 31.9%. In addition, the fold induction at 10 µM in assay [2] was 0.97.

Take `CCCCCCc1ccc2nc(N(C)CC(=O)O)cc(N3CCC(F)(F)CC3)c2c1` [2-{[4-(4,4-difluoropiperidin-1-yl)-6-hexylquinolin-2-yl](methyl)amino}acetic acid]: the inhibition at 1085 µM (stock) in assay [1] was 53.7%. Besides, the fold induction at 10 µM in assay [2] was 1.23.

For the compound `CCCCc1ccc2nc(N(C)CC(=O)O)cc(-c3ccc(O)cc3)c2c1` [2-{[6-butyl-4-(4-hydroxyphenyl)quinolin-2-yl](methyl)amino}acetic acid], the inhibition at 1085 µM (stock) in assay [1] was 60.5%. In addition, in assay [2], the fold induction at 10 µM worked out at 1.26.

In the case of `CCCCCCc1ccc2nc(N(CC)CC(=O)O)cc(-c3ccc(F)cc3)c2c1` [2-{ethyl[4-(4-fluorophenyl)-6-hexylquinolin-2-yl]amino}acetic acid], in assay [1], the inhibition at 1085 µM (stock) turned out to be 78.3%. For the same compound, the fold induction at 10 µM in assay [2] was found to be 1.27.

On to `CN(CC(=O)O)c1cc(-c2ccccc2)c2cc(CCc3ccccc3Cl)ccc2n1` [2-({6-[2-(2-chlorophenyl)ethyl]-4-phenylquinolin-2-yl}(methyl)amino)acetic acid], for which the inhibition at 1085 µM (stock) in assay [1] came out at 30.1%. Further, the fold induction at 10 µM in assay [2] is 1.26.

For the compound `CCCCc1ccc2nc(N(C)CC(=O)O)cc(-c3ccc(F)cc3)c2c1` [2-{[6-butyl-4-(4-fluorophenyl)quinolin-2-yl](methyl)amino}acetic acid], the inhibition at 1085 µM (stock) in assay [1] stood at 58.6%. The fold induction at 10 µM in assay [2] is 1.49.

As for `CN(CC(=O)O)c1cc(-c2ccccc2)c2cc(CCc3nc4ccccc4o3)ccc2n1` [2-({6-[2-(1,3-benzoxazol-2-yl)ethyl]-4-phenylquinolin-2-yl}(methyl)amino)acetic acid], the inhibition at 1085 µM (stock) in assay [1] was 27.4%. In assay [2], the fold induction at 10 µM was 1.23.

For `CCCCc1ccc2nc(N(C)CC(=O)O)cc(-c3ccncc3)c2c1` [2-{[6-butyl-4-(pyridin-4-yl)quinolin-2-yl](methyl)amino}acetic acid], the inhibition at 1085 µM (stock) in assay [1] came to 15%. Also, the fold induction at 10 µM in assay [2] is 1.28.

With `CCCCCCCCc1ccc2nc(N(C)CC(=O)O)cc(Oc3ccc(F)cc3)c2c1` [2-{[4-(4-fluorophenoxy)-6-octylquinolin-2-yl](methyl)amino}acetic acid], the inhibition at 1085 µM (stock) in assay [1] worked out at 78.7%. Further, the fold induction at 10 µM in assay [2] was 1.41.
